Like-named read-outs stand apart in the source and are kept apart here.

Experiment [1] concerns the target T1, α-Glucosidase from recombinant yeast (Saccharomyces cerevisiae, UniProt P53341).
T1 construct: purchased Shanghai yuanye Bio-Technology Co. Ltd; host or cells: recombinant yeast
Description: biochemical. It is filed as biochemical. Particulars: for Inhibitory score: 1/IC50, Table 4, S4. The method, then: Fatty acids and their derivates were diluted in 0.1 M, pH = 6.9 phosphate buffer with 0.5% (v/v) DMSO as cosolvent, to prepare […] sample solutions. 50 μL sample solution and 100 μL 0.5 U α-glucosidase (prepared in the same phosphate buffer) were added into 1.5-mL plastic tubes, incubated at 37 °C, 10 min. Then, 50 μL 5 mM α-PNPG (prepared in the same buffer) was added into the plastic tube, incubated for another 10 min at 37 °C. At the end, 1 M Na2CO3 was added to terminate the reaction.
The Inhibitory score measures the inhibitory intensity of each sample on α-glucosidase, calculated by 1/IC50. Data were subjected to the one-way ANOVA analysis by SPSS 23.0, shown as mean ± SD (n = 3).

The next experiment has as its system α-glucosidase. Particulars: result in words; ref Paul et al. ([2010]); cited from earlier work.
[2] abbreviates: 0.1 M phosphate buffer pH 6.9, 0.5% DMSO, 37 °C, α-PNPG, mean ± SD (n = 3), read-out: IC50.

T1 sequence (P53341 whole entry): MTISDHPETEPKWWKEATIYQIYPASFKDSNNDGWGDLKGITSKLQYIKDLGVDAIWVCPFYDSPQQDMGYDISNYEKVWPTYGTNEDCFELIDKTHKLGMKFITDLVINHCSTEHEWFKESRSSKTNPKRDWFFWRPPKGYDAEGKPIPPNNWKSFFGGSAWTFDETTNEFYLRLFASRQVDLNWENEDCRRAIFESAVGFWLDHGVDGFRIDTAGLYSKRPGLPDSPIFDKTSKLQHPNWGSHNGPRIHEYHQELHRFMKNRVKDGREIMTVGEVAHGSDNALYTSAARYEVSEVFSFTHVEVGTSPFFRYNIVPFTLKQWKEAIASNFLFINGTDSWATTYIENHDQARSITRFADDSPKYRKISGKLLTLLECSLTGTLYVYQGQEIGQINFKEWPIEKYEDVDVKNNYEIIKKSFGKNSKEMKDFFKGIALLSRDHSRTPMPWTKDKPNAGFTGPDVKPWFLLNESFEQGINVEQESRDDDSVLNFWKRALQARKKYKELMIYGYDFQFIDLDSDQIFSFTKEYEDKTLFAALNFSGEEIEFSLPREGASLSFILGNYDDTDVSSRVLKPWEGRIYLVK

As a reminder, the IC50 is the midpoint of a concentration-inhibition curve. `CCCCC/C=C\CC(O)CCCCCCCCC(=O)O` (stereo not drawn) [10-HOA, 10-hydroxy-cis-12-octadecenoic acid]: in experiment [1], the IC50 came out at 0.39 ± 0.01 µM and the Inhibitory score is recorded as 2.58. With `CCCCCCCCC(O)CCCCCCCCC(=O)O` (stereo not shown) [10-HSA, 10-hydroxystearic acid], the IC50 in experiment [1] (setting [2]) came to 1.71 ± 0.02 µM. Moreover, the Inhibitory score in experiment [1] stood at 0.58.

As for `CCCCCCCCC(O)/C=C/CCCCCCC(=O)O` (stereo not shown) [10-hydroxy-8 (E)-octadecenoic acid], the “inhibition of α-glucosidase” value in the experiment on α-glucosidase is “useful inhibitor”. For `CCCCCCCC/C=C\CCCCCCCC(=O)OCCCC` [Butyl, butyl oleate], the IC50 in experiment [1] (setting [2]) is 2.34 ± 0.11 µM. The Inhibitory score in experiment [1] is 0.43. Turning to `CCCCCCCCCC(=O)O` [C10:0, capric acid], in experiment [1] (setting [2]), the IC50 came to 114 ± 2.37 µM.

As to `CCCCCCCCCCCC(=O)O` [C12:0, lauric acid], the IC50 in experiment [1] (setting [2]) came to 135 ± 6.43 µM. On the same count and under the same terms, next, `CCCCCCCCCCCCCC(=O)O` [C14:0, myristic acid]: 56.2 ± 2.81 µM. On the same count and under the same terms, next, `CCCCCCCCCCCCCCCC(=O)O` [C16:0, palmitic acid]: 13.97 ± 0.01 µM. `CCCCC/C=C\C/C=C\CCCCCCCC(=O)O` [C18:2, linoleic acid]: in experiment [1], the IC50 stood at 0.6 ± 0.01 µM.

Take `CC/C=C\C/C=C\C/C=C\CCCCCCCC(=O)O` [C18:3, α-linolenic acid]: in experiment [1], the IC50 is 0.54 ± 0.01 µM. Turning to `CCCCCCCC/C=C\CCCCCCCC(=O)OCCCCCC` [Hexyl, hexyl oleate], in experiment [1] (setting [2]), the IC50 worked out at 4.16 ± 0.21 µM. Further, the Inhibitory score in experiment [1] is 0.24. The corresponding values for `CCCCCCCC/C=C\CCCCCCCC(=O)OC(C)C` [Isopropyl, isopropyl oleate] are 0.6 ± 0.01 µM and 1.67.

With `CCCCCCCC/C=C\CCCCCCCC(=O)OCCCCCCCC` [Octyl, octyl oleate], in experiment [1] (setting [2]), the IC50 was found to be 3.25 ± 0.08 µM. Besides, the Inhibitory score in experiment [1] was determined as 0.31.

Take `CCCCCCCC/C=C\CCCCCCCC(=O)OCCCCC` [Pentyl, amyl oleate]: the IC50 in experiment [1] (setting [2]) turned out to be 3.21 ± 0.17 µM. In addition, the Inhibitory score in experiment [1] was found to be 0.31.

For `CCCCCCCC/C=C\CCCCCCCC(=O)OCCC` [Propyl, propyl oleate], the IC50 in experiment [1] (setting [2]) was 1.75 ± 0.04 µM. Besides, the Inhibitory score in experiment [1] was 0.57. Consider `CCCCCCCC/C=C\CCCCCCCC(=O)O` [cis-C18:1, Oleic acid], for which, in experiment [1] (setting [2]), the IC50 was 0.81 ± 0.04 µM. The Inhibitory score in experiment [1] (listed as OA) came to 1.23.
